Key:
K562/A02 [1] = experiment: Potency index, ratio of etoposide GI50 to test compound GI50 for human K562/A02 cells; assay type: functional
K562 [2] = experiment: Cytotoxicity against human K562 cells by SRB assay; assay type: functional, cell-based
K562/A02 [3] = experiment: Cytotoxicity against human K562/A02 cells by SRB assay; assay type: functional, cell-based
K562/A02 [4] = experiment: Potency index, ratio of doxorubicin IC50 to test compound IC50 for human K562/A02 cells; assay type: functional
MKN-45 [5] = experiment: Antiproliferative activity against human MKN-45 cells incubated for 72 hrs by MTT assay; assay type: functional, cell-based; conditions: Homo sapiens, MKN-45, 72 h
BGC-823 [6] = experiment: Potency index, ratio of etoposide IC50 to test compound IC50 for antiproliferative activity against human BGC-823 cells; assay type: functional
BGC-823 [7] = experiment: Antiproliferative activity against human BGC-823 cells incubated for 72 hrs by MTT assay; assay type: functional, cell-based; conditions: BGC-823, 72 h
MKN-45 [8] = experiment: Potency index, ratio of etoposide IC50 to test compound IC50 for antiproliferative activity against human MKN-45 cells; assay type: functional
K562 [9] = experiment: Antiproliferative activity against human K562 cells incubated for 72 hrs by CCK8 method; assay type: functional, cell-based; conditions: K562, 72 h
K562/VCR [10] = experiment: Antiproliferative activity against human K562/VCR cells incubated for 72 hrs by CCK8 method; assay type: functional, cell-based
K562/Adr = experiment: Antiproliferative activity against human K562/ADR cells incubated for 72 hrs by CCK8 method; assay type: functional, cell-based
K562/VCR [11] = experiment: Potency index, ratio of etoposide IC50 to compound IC50 for antiproliferative activity against human K562/VCR cells; assay type: functional
K562/VCR [12] = experiment: Potency index, ratio of vincristine IC50 to compound IC50 for antiproliferative activity against human K562/VCR cells; assay type: functional
HepG2 [13] = experiment: Antiproliferative activity against human HepG2 cells incubated for 48 hrs by MTT assay; assay type: functional, cell-based; conditions: HepG2, 48 h
[14] = Antiproliferative activity against human HCCLM3 cells incubated for 48 hrs by MTT assay; assay type: functional, cell-based; conditions: HCCLM3, 48 h
HepG2 [15] = experiment: Antitumor activity against human HepG2 cells xenografted in BALB/c nude mouse assessed as tumor weight suppression at 1 mg/kg, ip administered every 6 days for 20 days and measured every 2 days by digital caliper method relative to control; assay type: functional, organism-based; conditions: time 20 day
HepG2 [16] = experiment: Cytotoxicity against human HepG2 cells incubated for 24 hrs by CCK8 assay; assay type: functional, cell-based; conditions: HepG2, 24 h
HeLa [17] = experiment: Cytotoxicity against human HeLa cells incubated for 24 hrs by CCK8 assay; assay type: functional, cell-based
A549 = experiment: Cytotoxicity against human A549 cells incubated for 24 hrs by CCK8 assay; assay type: functional, cell-based; conditions: A549, 24 h
MCF7 = experiment: Cytotoxicity against human MCF7 cells incubated for 24 hrs by CCK8 assay; assay type: functional, cell-based; conditions: MCF7, 24 h
[18] = Cytotoxicity against PBMC (unknown origin) incubated for 24 hrs by CCK8 assay
L02 = experiment: Cytotoxicity against human L02 cells incubated for 24 hrs by CCK8 assay; assay type: functional, cell-based; conditions: L02, 24 h
HeLa [19] = experiment: Antiproliferative activity against human HeLa cells by MTT assay; assay type: functional, cell-based
K562/A02 [20] = experiment: Antiproliferative activity against human K562/A02 cells by MTT assay; assay type: functional, cell-based
K562 [21] = experiment: Antiproliferative activity against human K562 cells by MTT assay; assay type: functional, cell-based
HeLa [22] = experiment: Potency index, ratio of etoposide IC50 to test compound IC50 for human HeLa cells; assay type: functional
K562 [23] = experiment: Potency index, ratio of etoposide IC50 to test compound IC50 for human K562 cells; assay type: functional
[24] = Resistance index, ratio of IC50 for human K562/AO2 cells to IC50 for human K562 cells; assay type: functional

What does the source list for `COc1ccc2[nH]cc(C(=O)C(=O)N[C@@H]3c4cc5c(cc4[C@@H](c4cc(OC)c(OC)c(OC)c4)[C@H]4C(=O)OC[C@@H]43)OCO5)c2c1`?
Ratio IC50 (K562/A02 [1]): 4.2; GI50 (K562 [2]): 1020 nM; GI50 (K562/A02 [3]): 3.34 µM; Ratio IC50 (K562/A02 [4]): 4.2

What does the source list for `COc1cc([C@@H]2c3cc4c(cc3[C@H](OC(=O)/C=C(C)/C=C/C=C(C)/C=C/C3=C(C)CCCC3(C)C)[C@H]3COC(=O)[C@H]23)OCO4)cc(OC)c1OC`?
IC50 (MKN-45 [5]): 419 nM; Ratio IC50 (BGC-823 [6]): 6.8; IC50 (BGC-823 [7]): 202 nM; Ratio IC50 (MKN-45 [8]): 6.8

Which results are given for `COc1cc([C@@H]2c3cc4c(cc3[C@H](OC(=O)c3nn(Cc5cc(Cl)cc(Cl)c5)c5ccccc35)[C@H]3COC(=O)[C@H]23)OCO4)cc(OC)c1OC`?
IC50 (K562 [9]): 423 nM; IC50 (K562/VCR [10]): 578 nM; IC50 (K562/Adr): 560 nM; Ratio IC50 (K562/VCR [11]): 8.1; Ratio IC50 (K562/VCR [12]): 8.1

What does the source list for `COc1cc([C@@H]2c3cc4c(cc3[C@@H](OC(=O)CCSC(=S)N/N=C/c3ccccn3)[C@H]3COC(=O)[C@H]23)OCO4)cc(OC)c1O`?
IC50 (HepG2 [13]): 3.89 µM; IC50 [14]: 11 µM; Activity (HepG2 [15]): 93.8%

For `COc1cc([C@@H]2c3cc4c(cc3[C@H](OC(=O)c3c[nH]c5ccccc35)[C@H]3COC(=O)[C@H]23)OCO4)cc(OC)c1OC`, which IC50 (HepG2 [16]) is on record?
Its IC50 is 1930 nM.

And the IC50 (HeLa [17])?
The IC50 was 1930 nM.

And the IC50 (A549)?
Its IC50 is 1930 nM.

And the IC50 (MCF7)?
Its IC50 is 1930 nM.

And the IC50 [18]?
Its IC50 is 75.6 µM.

And the IC50 (L02)?
Its IC50 is 88.9 µM.

Which IC50 (HeLa [19]) does the source give for `COc1cc([C@@H]2c3cc4c(cc3[C@@H](NCc3cc5ccccc5[nH]3)[C@H]3COC(=O)[C@H]23)OCO4)cc(OC)c1OC` here?
Its IC50 is 100 nM.

And the IC50 (K562/A02 [20])?
Its IC50 is 2230 nM.

What about the IC50 (K562 [21]) of the same compound?
The IC50 was 100 nM.

What about the “Ratio IC50” value (HeLa [22]) of the same compound?
Its value is 1.7.

And the “Ratio IC50” value (K562 [23])?
Its value is 1.7.

And the “Ratio IC50” value (K562/A02 [1])?
The value was 1.7.

What about the “Ratio IC50” value [24] of the same compound?
Its value is 1.97.
